{"source": "paper PMC10895676", "about": "“Antiviral Activity of Lipophilic Nucleoside Tetraphosphate Compounds” (Journal of Medicinal Chemistry, 2024)", "key": {"pig liver esterase (PLE)": {"system": "pig liver esterase (PLE)", "test": "Enzymatic hydrolysis with pig liver esterase (PLE)", "type": "in vitro ADME", "conditions": "pig liver esterase in phosphate buffer, PLE in phosphate buffer pH 7.3, 37 °C, read-out: PLE t1/2 (converted)", "protocol": "To confirm the enzymatic hydrolysis process, TetraPPPPro-nucleotides 4–9 bearing different kinds of lipophilic groups attached to the δ-phosph(on)ate group were incubated with PLE in phosphate buffer.\nThen, 833 μL of 50 mM phosphate buffer (pH 7.3) and 125 μL of DMSO were added to the 6.0 mM hydrolysis solutions. The reaction was started by addition of 62.5 μL of PLE in phosphate buffer (100 units/mL), and the mixture was incubated at 800 rpm at 37 °C in a thermomixer. (1). At different times, aliquots (75 μL) were taken and stopped by the addition of […] of MeOH. The mixture was stored in liquid nitrogen. When testing, samples were warmed up to room temperature, and 60 μL of the liquid was directly injected into HPLC analysis. (2). 40 μL for each extraction was stored in liquid nitrogen. When testing, samples were warmed up to room temperature, and 30 μL of the liquid was taken and injected into the analytical RP-18-HPLC instrument. The calculation of t1/2 was performed analogously to that for the chemical hydrolysis studies."}, "HIV-2 (ROD) [1]": {"system": "HIV-2 (ROD)", "test": "Anti-HIV replication assay, HIV-2 (ROD) in thymidine kinase-deficient CEM/TK– cells", "type": "cell-based", "conditions": "for selectivity index (SI): CC50/EC50, HIV-2 (ROD) in CEM/TK– cells; for improvement of antiviral activity as compared to the parent d4T: HIV-2, CEM/TK– cells; for EC50: read-out: CEM/TK– HIV-2 (ROD) EC50", "in_short": "(§1)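 Wild-type CEM/0 or thymidine kinase-deficient CEM/TK– T-cells (~3 × 10^5 cells/mL) were infected with 100 CCID50/mL HIV-2(ROD) in the presence of compound dilutions. After 4–5 days at 37 °C, virus-induced cytopathicity and syncytium formation were scored microscopically.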"}, "HIV-2 (ROD) [2]": {"system": "HIV-2 (ROD)", "test": "Anti-HIV replication assay, HIV-2 (ROD) in wild-type CEM/0 cells", "type": "cell-based", "conditions": "for selectivity index (SI): CC50/EC50, HIV-2 (ROD) in CEM cells; for EC50: Human immunodeficiency virus 2, CCRF-CEM, read-out: HIV-2 (ROD) EC50", "in_short": "as §1"}, "[3]": {"test": "Chemical hydrolysis in aqueous buffers (PBS pH 7.3 / 8.0, citrate buffer pH 2.0), RP18-HPLC", "type": "physicochemical", "conditions": "for half-life: 25 mM citrate buffer, pH 2.0, 37 °C; for half-life at 1.9 mM: phosphate buffered saline", "in_short": "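Compound incubated at 37 °C in PBS pH 7.3 or 8.0, or citrate/NaCl/HCl buffer adjusted to pH 2.0 with NaOH. Aliquots sampled over time, stored at −30 °C, and hydrolysis products quantified by RP18-HPLC with UV detection.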"}, "[4]": {"conditions": "Human immunodeficiency virus 2, CEM/TK– cells, mean ± SD, n = 2–3"}, "[5]": {"conditions": "wild-type CEM/0 cells, mean ± SD, n = 2–3"}, "[6]": {"conditions": "25 mM PBS, pH 7.3, 37 °C, read-out: PBS pH 7.3 t1/2 (converted)"}, "[7]": {"conditions": "PBS, pH 8.0, 37 °C, read-out: PBS pH 8.0 t1/2 (converted)"}}, "note": "Like-named read-outs stand apart in the source and are kept apart here."}
{"smiles": "CCCCCCCCCCCCCCCCCCOP(=O)(OCCCC)OP(=O)(O)OP(=O)(O)OP(=O)(O)OC[C@@H]1C=C[C@H](n2cc(C)c(=O)[nH]c2=O)O1", "note": "(stereo partly drawn) [4d, δ-(Alkyl-C4; alkyl-C18)-d4T4P]", "values": [{"measurement": "half-life at 0.45 mM", "setting": "pig liver esterase (PLE)", "result": "> 50", "unit": "h"}, {"measurement": "selectivity index (SI)", "setting": "HIV-2 (ROD) [1]", "result": 260}, {"measurement": "improvement of antiviral activity as compared to the parent d4T", "setting": "HIV-2 (ROD) [1]", "result": "> 270", "unit": "fold"}, {"measurement": "EC50", "setting": "HIV-2 (ROD) [1]; [4]", "result": "180 ± 150", "unit": "nM"}, {"measurement": "selectivity index (SI)", "setting": "HIV-2 (ROD) [2]", "result": 522}, {"measurement": "EC50", "setting": "HIV-2 (ROD) [2]; [5]", "result": "84 ± 18", "unit": "nM"}, {"measurement": "half-life", "setting": "[3]", "result": 66, "unit": "h"}, {"measurement": "half-life at 1.9 mM", "setting": "[3]; [6]", "result": 251, "unit": "h"}, {"measurement": "half-life at 1.9 mM", "setting": "[3]; [7]", "result": "> 100", "unit": "h"}]}
{"smiles": "CCCCCCCCCCCCCCCCCCP(=O)(OCCCC)OP(=O)(O)OP(=O)(O)OP(=O)(O)OC[C@@H]1C=C[C@H](n2cc(C)c(=O)[nH]c2=O)O1", "note": "(stereo partly drawn) [5a, δ-(Alkyl-C4)-δ-C-(alkyl-C18)-d4T4P]", "values": [{"measurement": "half-life at 0.45 mM", "setting": "pig liver esterase (PLE)", "result": "> 50", "unit": "h"}, {"measurement": "improvement of antiviral activity as compared to the parent d4T", "setting": "HIV-2 (ROD) [1]", "result": "> 1100", "unit": "fold"}, {"measurement": "EC50", "setting": "HIV-2 (ROD) [1]; Human immunodeficiency virus 2, CEM-TK(-)", "result": "43 ± 26", "unit": "nM"}, {"measurement": "EC50", "setting": "HIV-2 (ROD) [2]", "result": "330 ± 120", "unit": "nM"}, {"measurement": "half-life", "setting": "[3]", "result": "> 150", "unit": "h"}, {"measurement": "half-life at 1.9 mM", "setting": "[3]; [6]", "result": "> 1000", "unit": "h"}, {"measurement": "half-life at 1.9 mM", "setting": "[3]; [7]", "result": "> 200", "unit": "h"}]}
{"smiles": "CCCCCCCCCCCCCCCCCCOP(=O)(O)OP(=O)(O)OP(=O)(O)OP(=O)(O)OC[C@@H]1C=C[C@H](n2cc(C)c(=O)[nH]c2=O)O1", "note": "[compound 20, δ-(Alkyl-C18)-d4T4P]", "values": [{"measurement": "half-life at 0.45 mM", "setting": "pig liver esterase (PLE)", "result": "> 50", "unit": "h"}, {"measurement": "selectivity index (SI)", "setting": "HIV-2 (ROD) [1]", "result": ">21"}, {"measurement": "EC50", "setting": "HIV-2 (ROD) [1]; [4]", "result": "4600 ± 330", "unit": "nM"}, {"measurement": "selectivity index (SI)", "setting": "HIV-2 (ROD) [2]", "result": ">200"}, {"measurement": "EC50", "setting": "HIV-2 (ROD) [2]; [5]", "result": "500 ± 160", "unit": "nM"}, {"measurement": "half-life at 1.9 mM", "setting": "[3]; [6]", "result": 132, "unit": "h"}]}
{"smiles": "CCCCCCCCCCCCCCCCCCP(=O)(O)OP(=O)(O)OP(=O)(O)OP(=O)(O)OC[C@@H]1C=C[C@H](n2cc(C)c(=O)[nH]c2=O)O1", "note": "[compound 24, δ-C-(Alkyl-C18)-d4T4P]", "values": [{"measurement": "half-life at 0.45 mM", "setting": "pig liver esterase (PLE)", "result": "> 50", "unit": "h"}, {"measurement": "selectivity index (SI)", "setting": "HIV-2 (ROD) [1]", "result": 30}, {"measurement": "EC50", "setting": "HIV-2 (ROD) [1]; [4]", "result": "1350 ± 630", "unit": "nM"}, {"measurement": "EC50", "setting": "HIV-2 (ROD) [2]; [5]", "result": "240 ± 70", "unit": "nM"}, {"measurement": "half-life at 1.9 mM", "setting": "[3]; [6]", "result": "> 1000", "unit": "h"}]}
{"smiles": "Cc1cn([C@H]2C=C[C@@H](COP(=O)(O)OP(=O)(O)OP(=O)(O)OP(=O)(O)O)O2)c(=O)[nH]c1=O", "note": "[d4T4P, 2′,3′-didehydro-2′,3′-dideoxythymidine-5′-tetraphosphate]", "values": [{"measurement": "selectivity index (SI)", "setting": "HIV-2 (ROD) [1]", "result": ">3"}, {"measurement": "EC50", "setting": "HIV-2 (ROD) [1]; [4]", "result": "33800 ± 21300", "unit": "nM"}, {"measurement": "EC50", "setting": "HIV-2 (ROD) [2]; [5]", "result": "220 ± 92", "unit": "nM"}, {"measurement": "half-life", "setting": "[3]", "result": "> 150", "unit": "h"}, {"measurement": "half-life at 1.9 mM", "setting": "[3]; [6]", "result": 534, "unit": "h"}, {"measurement": "half-life at 1.9 mM", "setting": "[3]; [7]", "result": "> 150", "unit": "h"}]}
